# Target: T1, human cathepsin K (Homo sapiens, UniProt P43235)
# T1 construct: The proform of cathepsin K was converted to mature cathepsin K by brief exposure to pH 4; made in house; host or cells: baculovirus; Trichoplusia ni High Five cells (virus raised in Sf-9)
# T1 sequence (P43235 115-329): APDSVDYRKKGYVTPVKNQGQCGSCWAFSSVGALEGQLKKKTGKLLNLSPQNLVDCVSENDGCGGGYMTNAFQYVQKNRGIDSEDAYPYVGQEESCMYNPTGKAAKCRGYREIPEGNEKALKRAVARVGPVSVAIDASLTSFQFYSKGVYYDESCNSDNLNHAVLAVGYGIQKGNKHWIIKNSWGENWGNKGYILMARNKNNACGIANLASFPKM
# Assay: cathepsin K inhibition assay, fluorogenic substrate Cbz-Phe-Arg-AMC, progress curve method
# Assay type: biochemical
# Details: Table 1; human recombinant enzyme, pH 5.5, 30° C., 10 μM substrate; read-out: hcatK Ki
# Experimental: All assays for cathepsin K were carried out with human and rat recombinant enzyme. Assays for cathepsins S & V were also carried out with human recombinant enzyme. Assays for human cathepsins B, H, and L were carried out with enzyme, purchased from Athens Research and Technology, Inc., prepared from human liver tissue. […] A stock substrate solution of Cbz-Phe-Arg-AMC was prepared at a concentration of 50 mM in dimethyl sulfoxide. This substrate was diluted into the assay for a final substrate concentration of 10 μM in the rat cathepsin K, human cathepsin K, and human cathepsin B assays; a final substrate concentration of 5 μM in the human cathepsin L assay; and a final substrate concentration of 2 μM in the human cathepsin V assay.
# All assays contained 10% dimethyl sulfoxide. […] All assays were conducted at 30° C. Product fluorescence (excitation at 360 nm; emission at 440 nm, (except cathepsin H which used excitation at 340 nm; emission at 420 nm)) was monitored with a PerSeptive Biosystems Cytofluor II fluorescence plate reader. Product progress curves were generated over 2.3 h monitoring the formation of 7-amino-4-methylcoumarin product (or β-naphthalamide for cathepsin H).
# Two liters of Spodoptera frugiperda (Sf-9) cells (ATCC) were grown in Grace's Supplemented medium (Life Technologies) supplemented with 2 g/L glucose, 10% fetal bovine serum (HyClone) and 0.1% pluronic F-68 (Life Technologies). […] The cells continued to grow for 72 h post-infection, before the virus was harvested by centrifugation at 1400×g for 30 min.
# One and one-half liters of Trichoplusia ni (T. ni) High Five (™) cells [JRH Biosciences, Woodland, Calif. […] Media were separated from cells at a rate of 1 L/min using the Centritech 100 (™) continuous-flow centrifuge (DuPont) operating at 200×g.
# Protein Purification: Media (human and rat) were filtered through a Whatman 3 filter, and then loaded onto a 25 mL Poros HS II (26 mm×47 mm) cation exchange column equilibrated in 25 mM sodium acetate at pH 5.5 (equilibration buffer). The column was washed until the absorbance reached the baseline value, and then the protein was eluted with a linear gradient from 0-2 M sodium chloride in the equilibration buffer. Column fractions were analyzed by SDS-PAGE, N-terminal sequencing, and mass spectrometry. Fractions containing the proform of cathepsin K were pooled and frozen at −80° C. The proform was concentrated in an Amicon Centriprep 10 and fractionated with a Superdex 75 column (26 mm×600 mm, Pharmacia) equilibrated in 400 mM sodium chloride, 25 mM sodium acetate at pH 5.5.
# Cathepsin K Activation: The proform of cathepsin K was converted to mature cathepsin K by brief exposure to pH 4 in the presence of 5 mM L-cysteine. Typically, 5 mM L-cysteine was added to 10 mL of approximately 1 mg/mL procathepsin K. One mL of this solution was diluted ten-fold into 450 mM sodium acetate at pH 4.0 containing 5 mM L-cysteine. This solution was reacted at 23° C. for 2 min before neutralization with 2 mL 1.8 M sodium acetate at pH 6.0. The neutralized sample was added to the remaining 9 mL of procathepsin K. The mixture was incubated at 4° C. for 2-3 days. The activated cathepsin K was chromatographed on a Poros HS II column as described above.
# Potential inhibitors were evaluated using the progress curve method. Assays were carried out in the presence of variable concentrations of test compound. Reactions were initiated by addition of buffered solutions of inhibitor and substrate to enzyme. Data analysis was conducted according to one of two procedures depending on the appearance of the progress curves in the presence of inhibitors. […] Ki values were calculated from IC50 values using equation 2 assuming a competitive model.
row,Ki [µM],Structure (SMILES)
1,0.01 to 0.1,"CCCCC(NC(=O)OCC1(COc2nnc(C)cc2-c2ccccc2)CCC1)C(=O)C(=O)N[C@H](C)c1ccccc1 (stereo in doubt) [Example 32, (1-{[(6-methyl-4-phenylpyridazin-3-yl)oxy]methyl}cyclobutyl)methyl (1R)-1-(oxo{[(1R)-1-phenylethyl]amino}acetyl)pentylcarbamate]"
2,0.1 to 1,"CCCC[C@H](NC(=O)OC1(Cc2ccccc2)CCC1)C(=O)C(=O)N[C@H](C)c1ccccc1 [Example 1, 1-Benzylcyclobutyl (1S)-1-(oxo{[(1R)-1-phenylethyl]amino}acetyl)pentylcarbamate]"
3,0.001 to 0.01,"CCCC[C@H](NC(=O)OCC1(Cc2nc(-c3ccccc3)cs2)CCC1)C(=O)C(=O)N[C@H](C)c1ccccc1 [Example 18, {1-[(4-phenyl-1,3-thiazol-2-yl)methyl]cyclobutyl}methyl(1S)-1-(oxo{[(1R)-1-phenylethyl]amino}acetyl)pentylcarbamate]"
4,0.01 to 0.1,"CCCC[C@H](NC(=O)OCC1(CSc2nccn2C)CCC1)C(=O)C(=O)N[C@H](C)c1ccccc1 [Example 19, (1-{[(1-methyl-1H-imidazol-2-yl)sulfanyl]methyl}cyclobutyl)methyl (1S)-1-(oxo{[(1R)-1-phenylethyl]amino}acetyl)pentylcarbamate]"
5,0.1 to 1,"CCCC[C@H](NC(=O)OCC1(COc2ccnc(Cl)n2)CCC1)C(=O)C(=O)N[C@H](C)c1ccccc1 [Example 20, (1-{[(2-chloro-4-pyrimidinyl)oxy]methyl}cyclobutyl)methyl(1S)-1-(oxo{[(1R)-1-phenylethyl]amino}acetyl)pentylcarbamate]"
6,0.01 to 0.1,"CCCC[C@H](NC(=O)OCC1(COc2ccnc(N3CCN(C)CC3)n2)CCC1)C(=O)C(=O)N[C@H](C)c1ccccc1 [Example 21, [1-({[2-(4-methyl-1-piperazinyl)-4-pyrimidinyl]oxy}methyl)cyclobutyl]methyl (1S)-1-(oxo{[(1R)-1-phenylethyl]amino}acetyl)pentylcarbamate]"
7,0.01 to 0.1,"CCCC[C@H](NC(=O)OCC1(COc2ccnc(N3CCOCC3)n2)CCC1)C(=O)C(=O)N[C@H](C)c1ccccc1 [Example 22, [1-({[2-(4-morpholinyl)-4-pyrimidinyl]oxy}methyl)cyclobutyl]methyl (1S)-1-(oxo{[(1R)-1-phenylethyl]amino}acetyl)pentylcarbamate]"
8,0.01 to 0.1,"CCCC[C@H](NC(=O)OCC1(CSc2ncccn2)CCC1)C(=O)C(=O)N[C@H](C)c1ccccc1 [Example 23, {1-[(2-pyrimidinylsulfanyl)methyl]cyclobutyl}methyl (1S)-1-(oxo{[(1R)-1-phenylethyl]amino}acetyl)pentylcarbamate]"
9,0.01 to 0.1,"CCCC[C@H](NC(=O)OCC1(CSc2nc3ccccc3o2)CCC1)C(=O)C(=O)N[C@H](C)c1ccccc1 [Example 24, {1-[(1,3-benzoxazol-2-ylsulfanyl)methyl]cyclobutyl}methyl (1S)-1-(oxo{[(1R)-1-phenylethyl]amino}acetyl)pentylcarbamate]"
10,0.01 to 0.1,"CCCC[C@H](NC(=O)OCC1(COc2nccs2)CCC1)C(=O)C(=O)N[C@H](C)c1ccccc1 [Example 25, {1-[(1,3-thiazol-2-yloxy)methyl]cyclobutyl}methyl (1S)-1-(oxo{[(1R)-1-phenylethyl]amino}acetyl)pentylcarbamate]"
11,0.01 to 0.1,"CCCC[C@H](NC(=O)OCC1(COc2nc(-c3ccccc3)ns2)CCC1)C(=O)C(=O)N[C@H](C)c1ccccc1 [Example 26, (1-{[(3-phenyl-1,2,4-thiadiazol-5-yl)oxy]methyl}cyclobutyl)methyl (1S)-1-(oxo{[(1R)-1-phenylethyl]amino}acetyl)pentylcarbamate]"
12,0.01 to 0.1,"CCCC[C@H](NC(=O)OCC1(COc2ccnc(N3CCN(c4ccccc4)CC3)n2)CCC1)C(=O)C(=O)N[C@H](C)c1ccccc1 [Example 27, [1-({[2-(4-phenyl-1-piperazinyl)-4-pyrimidinyl]oxy}methyl)cyclobutyl]methyl (1S)-1-(oxo{[(1R)-1-phenylethyl]amino}acetyl)pentylcarbamate]"
13,0.01 to 0.1,"CCCC[C@H](NC(=O)OCC1(CSc2nccn2-c2ccccc2)CCC1)C(=O)C(=O)N[C@H](C)c1ccccc1 [Example 28, (1-{[(1-phenyl-1H-imidazol-2-yl)sulfanyl]methyl}cyclobutyl)methyl (1S)-1-(oxo{[(1R)-1-phenylethyl]amino}acetyl)pentylcarbamate]"

# The next lines start with the compound.
row,Structure (SMILES),Ki [µM]
1,CCCC[C@H](NC(=O)OC1(Cc2ccccc2)CCCC1)C(=O)C(=O)N[C@H](C)c1ccccc1 [Example 2],0.01 to 0.1
2,"CCCC[C@H](NC(=O)OC1(Cc2ccccc2)CCCCC1)C(=O)C(=O)N[C@H](C)c1ccccc1 [Example 4, 1-Benzylcyclohexyl(1S)-1-(oxo{[(1R)-1-phenylethyl]amino}acetyl)pentylcarbamate]",0.1 to 1
3,"C[C@@H](NC(=O)C(=O)[C@H](CCCCNC(=O)N1CCOCC1)NC(=O)OCC1(Cc2ccccc2)CCCCC1)c1ccccc1 [Example 9, (1-Benzylcyclohexyl)methyl(1S)-5-[(4-morpholinylcarbonyl)amino]-1-(oxo{[(1R)-1-phenylethy]amino}acetyl)pentylcarbamate]",0.01 to 0.1
4,"C[C@@H](NC(=O)C(=O)[C@H](CCCCNC(=O)N1CCOCC1)NC(=O)OCC1(Cc2ccc(F)cc2)CCC1)c1ccccc1 [Example 10, [1-(4-Fluorobenzyl)cyclobutyl]methyl(1S)-5-[(4-morpholinylcarbonyl)amino]-1-(oxo{[(1R)-1-phenylethyl]amino}acetyl)pentylcarbamate]",0.01 to 0.1
5,"C[C@@H](NC(=O)C(=O)[C@H](CCCCNC(=O)N1CCOCC1)NC(=O)OCC1(Cc2ccncc2)CCC1)c1ccccc1 [Example 11, [1-(4-Pyridinylmethyl)cyclobutyl]methyl(1S)-5-[(4-morpholinylcarbonyl)amino]-1-(oxo{[(1R)-1-phenylethyl]amino}acetyl)pentylcarbamate]",0.001 to 0.01
6,"C[C@@H](NC(=O)C(=O)[C@H](CCCCNC(=O)N1CCOCC1)NC(=O)OCC1(Cc2cccnc2)CCC1)c1ccccc1 [Example 12, [1-(3-Pyridinylmethyl)cyclobutyl]methyl(1S)-5-[(4-morpholinylcarbonyl)amino]-1-(oxo{[(1R)-1-phenylethyl]amino}acetyl)pentylcarbamate]",0.1 to 1
7,"CNC(=O)NCCCC[C@H](NC(=O)OCC1(Cc2c(F)cccc2F)CCC1)C(=O)C(=O)N[C@H](C)c1ccccc1 [Example 13, [1-(2,6-Difluorobenzyl)cyclobutyl]methyl(1S)-5-{[(methylamino)carbonyl]amino}-1-(oxo{[(1R)-1-phenylethyl]amino}acetyl)pentylcarbamate]",0.01 to 0.1
8,"CCCC[C@H](NC(=O)OCC1(Cc2ccc(F)cc2)CCC1)C(=O)C(=O)Nc1ccn[nH]1 [Example 14, [1-(4-Fluorobenzyl)cyclobutyl]methyl(1S)-1-[oxo(1H-pyrazol-5-ylamino)acetyl]pentylcarbamate]",< 0.001
9,"CN(C)S(=O)(=O)NCCCC[C@H](NC(=O)OCC1(Cc2ccc(F)cc2)CCC1)C(=O)C(=O)NCc1cccnc1 [Example 16, [1-(4-Fluorobenzyl)cyclobutyl]methyl(1S)-5-{[(dimethylamino)sulfonyl]amino}-1-{oxo[(3-pyridinylmethyl)amino]acetyl}pentylcarbamate]",0.01 to 0.1

# Reference: US7282512B2, “Cycloalkyl ketoamides derivatives useful as cathepsin K inhibitors” (SmithKline Beecham Corporation, priority 2002, dated 2007)
